# From PubChem BioAssay (NCI)
#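 A five-concentration, 48-hour dose response in 96-well plates underlies each endpoint, interpolated linearly between surrounding concentrations. GI50: concentration for 50% inhibition of growth. Definition used: TGI = concentration required for complete inhibition of growth.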
# Assays:
# Test in all cases: inhibition of tumour cell growth, NCI panel, 48 h
# 786-0 renal = test system: 786-0 renal
# SW-620 colon = test system: SW-620 colon
# HCC-2998 colon = test system: HCC-2998 colon
# M14 melanoma = test system: M14 melanoma
# NCI-H522 lung = test system: NCI-H522 lung
# OVCAR-3 ovarian = test system: OVCAR-3 ovarian
# ACHN renal = test system: ACHN renal
# OVCAR-8 ovarian = test system: OVCAR-8 ovarian
# T-47D breast = test system: T-47D breast
# EKVX NSCLC = test system: EKVX NSCLC
# SR leukemia = test system: SR leukemia
# HCT-116 colon = test system: HCT-116 colon
# MCF7 breast = test system: MCF7 breast
# MOLT-4 leukemia = test system: MOLT-4 leukemia
# IGROV1 ovarian = test system: IGROV1 ovarian
# CCRF-CEM leukemia = test system: CCRF-CEM leukemia
# NCI-H460 lung = test system: NCI-H460 lung
# SK-MEL-28 melanoma = test system: SK-MEL-28 melanoma
# HT29 colon = test system: HT29 colon
# NCI-H23 lung = test system: NCI-H23 lung
# A549 NSCLC = test system: A549 NSCLC
# UACC-62 melanoma = test system: UACC-62 melanoma
# SNB-75 CNS = test system: SNB-75 CNS
# DU-145 prostate = test system: DU-145 prostate
# UO-31 renal = test system: UO-31 renal
# NCI-H226 lung = test system: NCI-H226 lung
# RPMI-8226 leukemia = test system: RPMI-8226 leukemia
# HOP-92 NSCLC = test system: HOP-92 NSCLC
# SN12C renal = test system: SN12C renal
# SK-MEL-2 melanoma = test system: SK-MEL-2 melanoma
# SK-MEL-5 melanoma = test system: SK-MEL-5 melanoma
# OVCAR-5 ovarian = test system: OVCAR-5 ovarian
# MDA-MB-231 breast = test system: MDA-MB-231 breast
# MALME-3M melanoma = test system: MALME-3M melanoma
# HOP-62 NSCLC = test system: HOP-62 NSCLC
# HCT-15 colon = test system: HCT-15 colon
# TK-10 renal = test system: TK-10 renal
# K-562 leukemia = test system: K-562 leukemia
# U251 CNS = test system: U251 CNS
# CAKI-1 renal = test system: CAKI-1 renal
# BT-549 breast = test system: BT-549 breast
# UACC-257 melanoma = test system: UACC-257 melanoma
# HL-60(TB) leukemia = test system: HL-60(TB) leukemia
# KM12 colon = test system: KM12 colon
# COLO 205 colon = test system: COLO 205 colon
# SK-OV-3 ovarian = test system: SK-OV-3 ovarian
# MDA-MB-435 = test system: MDA-MB-435
# LOX IMVI melanoma = test system: LOX IMVI melanoma
# NCI/ADR-RES ovarian = test system: NCI/ADR-RES ovarian
# SNB-19 CNS = test system: SNB-19 CNS
# HS 578T breast = test system: HS 578T breast
# OVCAR-4 ovarian = test system: OVCAR-4 ovarian
# PC-3 prostate = test system: PC-3 prostate
# RXF 393 renal = test system: RXF 393 renal
# A498 renal = test system: A498 renal
# SF-539 CNS = test system: SF-539 CNS
# SF-295 CNS = test system: SF-295 CNS
# SF-268 CNS = test system: SF-268 CNS
smiles,measurement,setting,value
N#Cc1c(-c2ccccc2)cc(-c2ccccc2)n(CCCC(=O)NO)c1=O,GI50,786-0 renal,1.6 µM
same,TGI,786-0 renal,5.85 µM
same,GI50,SW-620 colon,1.93 µM
same,TGI,SW-620 colon,12.6 µM
same,GI50,HCC-2998 colon,2.17 µM
same,TGI,HCC-2998 colon,8.66 µM
same,GI50,M14 melanoma,0.898 µM
same,TGI,M14 melanoma,10.1 µM
same,GI50,NCI-H522 lung,1.33 µM
same,TGI,NCI-H522 lung,5.89 µM
same,GI50,OVCAR-3 ovarian,1.61 µM
same,TGI,OVCAR-3 ovarian,4.6 µM
same,GI50,ACHN renal,0.494 µM
same,TGI,ACHN renal,3.59 µM
same,GI50,OVCAR-8 ovarian,1.14 µM
same,TGI,OVCAR-8 ovarian,8.67 µM
same,GI50,T-47D breast,1.83 µM
same,TGI,T-47D breast,8.34 µM
same,GI50,EKVX NSCLC,1.8 µM
same,TGI,EKVX NSCLC,7.81 µM
same,GI50,SR leukemia,0.361 µM
same,TGI,SR leukemia,3.65 µM
same,GI50,HCT-116 colon,1.67 µM
same,TGI,HCT-116 colon,6.7 µM
same,GI50,MCF7 breast,1.7 µM
same,TGI,MCF7 breast,10.6 µM
same,GI50,MOLT-4 leukemia,1.22 µM
same,TGI,MOLT-4 leukemia,5.98 µM
same,GI50,IGROV1 ovarian,1.69 µM
same,TGI,IGROV1 ovarian,4.77 µM
same,GI50,CCRF-CEM leukemia,0.847 µM
same,TGI,CCRF-CEM leukemia,7.15 µM
same,GI50,NCI-H460 lung,1.72 µM
same,TGI,NCI-H460 lung,8.78 µM
same,GI50,SK-MEL-28 melanoma,2.88 µM
same,TGI,SK-MEL-28 melanoma,12.7 µM
same,GI50,HT29 colon,2.58 µM
same,TGI,HT29 colon,8.58 µM
same,GI50,NCI-H23 lung,2.77 µM
same,TGI,NCI-H23 lung,9.94 µM
same,GI50,A549 NSCLC,2.2 µM
same,TGI,A549 NSCLC,7.95 µM
same,GI50,UACC-62 melanoma,1.82 µM
same,TGI,UACC-62 melanoma,5.63 µM
same,GI50,SNB-75 CNS,1.24 µM
same,TGI,SNB-75 CNS,4.85 µM
same,GI50,DU-145 prostate,2.66 µM
same,TGI,DU-145 prostate,10.5 µM
same,GI50,UO-31 renal,0.392 µM
same,TGI,UO-31 renal,2.3 µM
same,GI50,NCI-H226 lung,2.24 µM
same,TGI,NCI-H226 lung,7.41 µM
same,GI50,RPMI-8226 leukemia,1.14 µM
same,TGI,RPMI-8226 leukemia,3.8 µM
same,GI50,HOP-92 NSCLC,1.97 µM
same,TGI,HOP-92 NSCLC,7.53 µM
same,GI50,SN12C renal,2.34 µM
same,TGI,SN12C renal,10.3 µM
same,GI50,SK-MEL-2 melanoma,2.02 µM
same,TGI,SK-MEL-2 melanoma,10 µM
same,GI50,SK-MEL-5 melanoma,1.89 µM
same,TGI,SK-MEL-5 melanoma,4.74 µM
same,GI50,OVCAR-5 ovarian,2.3 µM
same,TGI,OVCAR-5 ovarian,8.43 µM
same,GI50,MDA-MB-231 breast,2.9 µM
same,TGI,MDA-MB-231 breast,10.4 µM
same,GI50,MALME-3M melanoma,0.704 µM
same,TGI,MALME-3M melanoma,11.5 µM
same,GI50,HOP-62 NSCLC,2 µM
same,TGI,HOP-62 NSCLC,6.98 µM
same,GI50,HCT-15 colon,0.434 µM
same,TGI,HCT-15 colon,10.7 µM
same,GI50,TK-10 renal,1 µM
same,TGI,TK-10 renal,11.1 µM
same,GI50,K-562 leukemia,0.729 µM
same,TGI,K-562 leukemia,12.9 µM
same,GI50,U251 CNS,1.69 µM
same,TGI,U251 CNS,4.62 µM
same,GI50,CAKI-1 renal,0.473 µM
same,TGI,CAKI-1 renal,2.65 µM
same,GI50,BT-549 breast,2.77 µM
same,TGI,BT-549 breast,14.1 µM
same,GI50,UACC-257 melanoma,1.73 µM
same,TGI,UACC-257 melanoma,7.38 µM
same,GI50,HL-60(TB) leukemia,1.81 µM
same,TGI,HL-60(TB) leukemia,5.43 µM
same,GI50,KM12 colon,1.1 µM
same,TGI,KM12 colon,11.8 µM
same,GI50,COLO 205 colon,1.97 µM
same,TGI,COLO 205 colon,4.97 µM
same,GI50,SK-OV-3 ovarian,1.98 µM
same,TGI,SK-OV-3 ovarian,5.23 µM
same,GI50,MDA-MB-435,0.324 µM
same,TGI,MDA-MB-435,10.7 µM
same,GI50,LOX IMVI melanoma,1.63 µM
same,TGI,LOX IMVI melanoma,3.41 µM
same,GI50,NCI/ADR-RES ovarian,0.541 µM
same,TGI,NCI/ADR-RES ovarian,3.72 µM
same,GI50,SNB-19 CNS,2.7 µM
same,TGI,SNB-19 CNS,13 µM
same,GI50,HS 578T breast,1.81 µM
same,TGI,HS 578T breast,8.5 µM
same,GI50,OVCAR-4 ovarian,1.92 µM
same,TGI,OVCAR-4 ovarian,11.8 µM
same,GI50,PC-3 prostate,2.13 µM
same,TGI,PC-3 prostate,14.4 µM
same,GI50,RXF 393 renal,0.939 µM
same,TGI,RXF 393 renal,2.74 µM
same,GI50,A498 renal,0.788 µM
same,TGI,A498 renal,2.95 µM
same,GI50,SF-539 CNS,1.68 µM
same,TGI,SF-539 CNS,5.03 µM
same,GI50,SF-295 CNS,2.15 µM
same,TGI,SF-295 CNS,5.02 µM
same,GI50,SF-268 CNS,2.31 µM
same,TGI,SF-268 CNS,6.72 µM
